Reference: patent publication US20100267561A1, “HERBICIDAL PYRIDAZINONE DERIVATIVES” (priority 2007, published 2010)

Tests used:
Assay type in all cases: in vivo
[1] = system: wild oat (Avena fatua); test: Test C pre-/postemergence plant response; conditions: Preemergence
Procedure, shortened: (§1)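 Visual rating vs untreated controls, 0 (no effect) to 100 (complete control), after 15–25 days in a controlled growth environment. Pre- and postemergence treatments; post plants at 1- to 4-leaf stage, 2–18 cm. Formulation: non-phytotoxic solvent mix plus surfactant.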

[2] = system: pigweed (Amaranthus retroflexus); test: Test C pre-/postemergence plant response; conditions: Preemergence
Procedure, shortened: as §1

[3] = system: winter wheat (Triticum aestivum); test: Test C pre-/postemergence plant response; conditions: Preemergence
Procedure, shortened: as §1

[4] = system: spring barley (Hordeum vulgare); test: Test C pre-/postemergence plant response; conditions: Preemergence
Procedure, shortened: as §1

[5] = system: wild mustard (Sinapis arvensis); test: Test C pre-/postemergence plant response; conditions: Preemergence
Procedure, shortened: as §1

[6] = system: spring wheat (Triticum aestivum); test: Test C pre-/postemergence plant response; conditions: Preemergence
Procedure, shortened: as §1

[7] = system: Italian ryegrass (Lolium multiflorum); test: Test C pre-/postemergence plant response; conditions: Preemergence
Procedure, shortened: as §1

[8] = system: canarygrass (Phalaris minor); test: Test C pre-/postemergence plant response; conditions: Preemergence
Procedure, shortened: as §1

[9] = system: blackgrass (Alopecurus myosuroides); test: Test C pre-/postemergence plant response; conditions: Preemergence
Procedure, shortened: as §1

[10] = system: annual bluegrass (Poa annua); test: Test C pre-/postemergence plant response; conditions: Preemergence
Procedure, shortened: as §1

[11] = system: windgrass (Apera spica-venti); test: Test C pre-/postemergence plant response; conditions: Preemergence
Procedure, shortened: as §1

[12] = system: downy bromegrass (Bromus tectorum); test: Test C pre-/postemergence plant response; conditions: Preemergence
Procedure, shortened: as §1

[13] = system: green foxtail (Setaria viridis); test: Test C pre-/postemergence plant response; conditions: Preemergence
Procedure, shortened: as §1

[14] = system: ducksalad (Heteranthera limosa); test: Test B flooded paddy test plant response
Procedure, shortened: (§2)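 Compounds were added directly to paddy water over 2-leaf-stage plants in pots flooded 3 cm above soil, water depth maintained. Visual injury scored against controls after 13 to 15 days in greenhouse, 0 (none) to 100 (complete control); dash indicates no result.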

[15] = system: umbrella sedge (Cyperus difformis); test: Test B flooded paddy test plant response
Procedure, shortened: as §2

[16] = system: barnyardgrass (Echinochloa crus-galli); test: Test B flooded paddy test plant response
Procedure, shortened: as §2

[17] = 8 g ai/ha, scale 0 to 100 (0 no effect, 100 complete control)
[18] = 16 g ai/ha, scale 0 to 100 (0 no effect, 100 complete control)
[19] = 31 g ai/ha, scale 0 to 100 (0 no effect, 100 complete control)
[20] = 62 g ai/ha, scale 0 to 100, 0 no effect, 100 complete control
[21] = Flood (flooded paddy test), 62 g ai/ha, scale 0 to 100, 0 no effect, 100 complete control
[22] = Flood (flooded paddy test), 250 g ai/ha, scale 0 to 100, 0 no effect, 100 complete control
[23] = Flood (flooded paddy test), 125 g ai/ha, scale 0 to 100, 0 no effect, 100 complete control
[24] = Flood, 31 g ai/ha, scale 0 to 100

Cc1cc(-c2ccc(Cl)cc2)nn1-c1c(OC(=O)Oc2ccccc2)cnn(C)c1=O [Compound 54]
25: Plant response rating, Barley, Spring [4, 19] | Plant response rating, Wheat, Spring [6, 18] | Plant response rating, Bluegrass [10, 20]
65: Plant response rating, Wheat, Spring [6, 19]
70: Plant response rating, Oat, Wild [1, 20] | Plant response rating, Barley, Spring [4, 20] | Plant response rating, Canarygrass [8, 18] | Plant response rating, Blackgrass [9, 18]
95: Plant response rating, Canarygrass [8, 20]
100: Plant response rating, Ryegrass, Italian [7, 19] | Plant response rating, Ryegrass, Italian [7, 20] | Plant response rating, Blackgrass [9, 19] | Plant response rating, Blackgrass [9, 20] | Plant response rating, Foxtail, Green [13, 19] | Plant response rating, Foxtail, Green [13, 20]
40: Plant response rating, Oat, Wild [1, 19] | Plant response rating, Foxtail, Green [13, 17]
20: Plant response rating, Ryegrass, Italian [7, 18] | Plant response rating, Barnyardgrass [16, 21]
80: Plant response rating, Canarygrass [8, 19] | Plant response rating, Bromegrass, Downy [12, 20] | Plant response rating, Barnyardgrass [16, 22]
98: Plant response rating, Wheat, Spring [6, 20] | Plant response rating, Foxtail, Green [13, 18]
15: Plant response rating, Bromegrass, Downy [12, 19]
0: Plant response rating, Oat, Wild [1, 17] | Plant response rating, Oat, Wild [1, 18] | Plant response rating, Pigweed [2, 17] | Plant response rating, Pigweed [2, 18] | Plant response rating, Pigweed [2, 19] | Plant response rating, Pigweed [2, 20] | Plant response rating, Wheat, Winter [3, 17] | Plant response rating, Wheat, Winter [3, 18] | Plant response rating, Barley, Spring [4, 17] | Plant response rating, Barley, Spring [4, 18] | Plant response rating, Mustard, Wild [5, 18] | Plant response rating, Mustard, Wild [5, 19] | Plant response rating, Mustard, Wild [5, 20] | Plant response rating, Wheat, Spring [6, 17] | Plant response rating, Ryegrass, Italian [7, 17] | Plant response rating, Canarygrass [8, 17] | Plant response rating, Bluegrass [10, 17] | Plant response rating, Bluegrass [10, 18] | Plant response rating, Bluegrass [10, 19] | Plant response rating, Windgrass [11, 17] | Plant response rating, Windgrass [11, 18] | Plant response rating, Bromegrass, Downy [12, 17] | Plant response rating, Bromegrass, Downy [12, 18] | Plant response rating, Ducksalad [14, 21] | Plant response rating, Ducksalad [14, 22] | Plant response rating, Sedge, Umbrella [15, 21] | Plant response rating, Sedge, Umbrella [15, 22]
50: Plant response rating, Wheat, Winter [3, 20]
75: Plant response rating, Windgrass [11, 20]
60: Plant response rating, Windgrass [11, 19]
35: Plant response rating, Wheat, Winter [3, 19] | Plant response rating, Blackgrass [9, 17]

Cc1cc(-c2ccc(Cl)cc2)nn1-c1c(OS(=O)(=O)c2ccc(Cl)s2)cnn(C)c1=O [Compound 55]
40: Plant response rating, Blackgrass [9, 18] | Plant response rating, Bromegrass, Downy [12, 20] | Plant response rating, Foxtail, Green [13, 18]
70: Plant response rating, Barley, Spring [4, 20] | Plant response rating, Sedge, Umbrella [15, 21]
45: Plant response rating, Sedge, Umbrella [15, 24]
90: Plant response rating, Ryegrass, Italian [7, 20] | Plant response rating, Canarygrass [8, 20]
65: Plant response rating, Oat, Wild [1, 20] | Plant response rating, Barnyardgrass [16, 22]
50: Plant response rating, Wheat, Spring [6, 19]
15: Plant response rating, Bluegrass [10, 20]
95: Plant response rating, Blackgrass [9, 20]
0: Plant response rating, Oat, Wild [1, 17] | Plant response rating, Oat, Wild [1, 18] | Plant response rating, Oat, Wild [1, 19] | Plant response rating, Pigweed [2, 17] | Plant response rating, Pigweed [2, 18] | Plant response rating, Pigweed [2, 19] | Plant response rating, Wheat, Winter [3, 17] | Plant response rating, Wheat, Winter [3, 18] | Plant response rating, Wheat, Winter [3, 19] | Plant response rating, Barley, Spring [4, 17] | Plant response rating, Barley, Spring [4, 18] | Plant response rating, Barley, Spring [4, 19] | Plant response rating, Mustard, Wild [5, 17] | Plant response rating, Mustard, Wild [5, 18] | Plant response rating, Mustard, Wild [5, 19] | Plant response rating, Mustard, Wild [5, 20] | Plant response rating, Wheat, Spring [6, 17] | Plant response rating, Wheat, Spring [6, 18] | Plant response rating, Ryegrass, Italian [7, 17] | Plant response rating, Ryegrass, Italian [7, 18] | Plant response rating, Canarygrass [8, 17] | Plant response rating, Canarygrass [8, 18] | Plant response rating, Bluegrass [10, 17] | Plant response rating, Bluegrass [10, 18] | Plant response rating, Bluegrass [10, 19] | Plant response rating, Windgrass [11, 17] | Plant response rating, Windgrass [11, 18] | Plant response rating, Windgrass [11, 19] | Plant response rating, Bromegrass, Downy [12, 17] | Plant response rating, Bromegrass, Downy [12, 18] | Plant response rating, Bromegrass, Downy [12, 19] | Plant response rating, Ducksalad [14, 21] | Plant response rating, Ducksalad [14, 23] | Plant response rating, Ducksalad [14, 24] | Plant response rating, Barnyardgrass [16, 21] | Plant response rating, Barnyardgrass [16, 23] | Plant response rating, Barnyardgrass [16, 24]
75: Plant response rating, Ducksalad [14, 22] | Plant response rating, Sedge, Umbrella [15, 23]
20: Plant response rating, Canarygrass [8, 19] | Plant response rating, Foxtail, Green [13, 17]
60: Plant response rating, Wheat, Winter [3, 20] | Plant response rating, Wheat, Spring [6, 20] | Plant response rating, Windgrass [11, 20]
80: Plant response rating, Blackgrass [9, 19] | Plant response rating, Sedge, Umbrella [15, 22]
100: Plant response rating, Foxtail, Green [13, 19] | Plant response rating, Foxtail, Green [13, 20]
